The test deals with full-length JFH-1 replicon. Briefly: replicon model, intracellular HCV RNA by RT-qPCR. Format: cell-based, hepatitis C virus in Huh-7 cells. To be noted: peptides 20 µM, controls 1 µM, 48 hours.

SMILES strings stand for the structures.

`COc1ccc2c(O[C@@H]3C[C@H]4C(=O)N[C@]5(C(=O)O)C[C@H]5/C=C\CCCCC[C@H](NC(=O)OC5CCCC5)C(=O)N4C3)cc(-c3csc(NC(C)C)n3)nc2c1` [BILN2061]: the “intracellular HCV RNA levels in replicon cells” value is recorded as “efficiently reduced HCV RNA levels”.

Regarding `C[C@@]1(O)[C@H](O)[C@@H](CO)O[C@H]1n1ccc(N)nc1=O` [Peptide 2-CMC, 2’-C-methylcytidine], the “intracellular HCV RNA levels in replicon cells” value is “efficiently reduced HCV RNA levels”.

The record behind these values is paper PMC3225806 (Chemistry & biology, 2011).
